Measured values from US20210206810A1, “Detection of Optimal Recombinants Using Fluorescent Protein Fusions” (priority 2019, published 2021).

Tests used:
Micrococcus luteus = assay: Determination of minimum inhibitory concentration (MIC); assay type: cell-based; conditions: visual inspection after 24 hours at 37° C. in MHB; tested 0.25 to 32 μg/mL
[1] = tested on: methicillin resistant Staphylococcus aureus (MRSA); conditions: microbial species including MRSA; cited from earlier work

For epidermicin-N101, the “minimum inhibitory concentration (growth of Micrococcus luteus)” value (Micrococcus luteus) is given as 2 µg/mL and the “cytotoxicity to microbial species” value [1] is given as “highly cytotoxic”.
